The values below come from US10442775B2, “Preparation method for eutectic hydrate crystal form II of AHU-377 and diovan trisodium salt” (CRYSTAL PHARMATECH CO., LTD., priority 2015, dated 2019).

A short description of this series: Crystal form stability on storage (no transformation to other forms). It counts as physicochemical. The conditions noted are these: 40° C./75% RH; samples packaged in inner double-layered LDPE bags and an outer aluminum foil composite film bag.

Regarding “trisodium AHU-377 and Valsartan co-crystal hydrate Form II”, the “Crystalline form stability (transformation to other forms)” value was “will not transform to other forms”.
